In PMC5847527, “Identification of a novel 2-oxindole fluorinated derivative as in vivo antitumor agent for prostate cancer acting via AMPK activation” (Scientific Reports, 2018):

Key:
[1] = system: AMPK; assay: AMPK and ACC phosphorylation by Western blot in LNCaP cells; format: cell-based, human; conditions: 25 µM, 1 hour
Description: Figure 2 Effect of 2-oxindole fluorinated derivatives on AMPK activity in prostate cancer cells. (A) PC-3, DU145 and LNCaP cells were treated with 25 µM of the selected 2-oxindole fluorinated derivatives for 1 hour. Levels of the phosphorylated AMPK (pAMPK), phosphorylated ACC (pACC) and their total forms were determined by Western blot. Upper panel, a representative Western blot of three different experiments. β-tubulin (β-Tub) serves as a loading control. […] Lower panels, densitometric analyses of bands represented as the mean of the ratio pAMPK/AMPK or pACC/ACC ± SD of three different experiments. *p < 0.05 compared with the controls by one-way ANOVA followed by Fisher’s LSD test; ^#p < 0.05 compared with 2-oxindole fluorinated derivates or with the AMPK activators AMP or A769662 by one-way ANOVA followed by Tukey test.
Similar results were obtained although AMPK stimulation by compound 8c was not so strong (Fig. 2A). […]
Cells were lysed in Lysis buffer (50 mM Tris pH 7.4, 0.8 M NaCl, 5 mM MgCl2, 0.1% Triton X-100) containing Protease Inhibitor and Phosphatase inhibitor Cocktails (Roche, Basel, Switzerland). Protein concentrations were measured by BioRad™ protein assay kit (Richmond, CA, USA). […] Films were analyzed by densitometry. […]

[2] = system: PC-3, DU145 and LNCaP cells; assay: Cell viability by cell counting (Trypan blue); format: cell-based; conditions: 25 µM
Description: Figure 3 Comparison of the effect of 2-oxindole fluorinated derivatives on the proliferation of human prostate cancer cells. (A) Normal (PTN2 and RWPE-1) and cancer (PC3,DU145 and LNCaP) prostate cells were treated with different doses of the compounds for 24 hours and cell viability was monitored by MTT assay. […] (C) PC-3, DU145 and LNCaP cells were treated with 25 µM of compound 8c for different times. Values were normalized with the control and represent the mean ± SD of at least three independent experiments. *p < 0.05 and **p < 0.01 compared to control by the Student’s - test.
To confirm the antiproliferative effect of compound 8c, cell viability was evaluated by cell counting at different times in PC-3, DU145 and LNCaP cells.
Cell viability was determined by 3-(4,5-dimethylthiazol-2-yl)-2,5-diphenyltetrazolium bromide (MTT) (Sigma-Aldrich) method. […] The optical density in each well was evaluated by measurement of absorbance at 490 and 650 nm using a microplate reader (ELX 800 Bio-Tek Intruments, INC). IC50 values were calculated using GraphPad Prism vs 6.0 (GraphPad Software, Inc, La Jolla, CA, USA). Cell viability was also determined by counting viable and dead cells by Trypan blue staining. Trypan blue positive and negative cells were counted using a Countess^TM automated cell counter (Invitrogen, Carlsbad, CA, USA). […]

[3] = system: PC-3 cells; assay: Cell cycle analysis by flow cytometry (Propidium Iodide), PC-3; format: cell-based, human; conditions: PC-3, 24 h, 25 μM and 50 μM tested (concentration of this value not stated)
Description: For that, we treated PC-3 and LNCaP cells with 25 μM and 50 μM of compound 8c for 24 h and performed cell cycle analysis by flow cytometry using Propidium Iodide (PI). […] It is worthy to note that when PC-3 cells were treated with compound 8c, 80% of cells were in subG0 phase (Fig. 4A).
Figure 4 Cell Cycle analysis in 8c-treated prostate cancer cells. (A) PC-3 and LNCaP cells were treated with compound 8c for 24 hours and cell cycle analysis was analyzed by flow cytometry using Propidium Iodide (PI). Percentage of cells in subG0, G1, S, and G2/M phases is indicated in the histogram. (B) Levels of Cyclin D1, p-p53, p53, p21 and cleaved Caspase 3 (17 kDa fragment) were determined by Western blot. Upper panel, representative Western blot of two different experiments. β-tubulin (β-Tub) serves as a loading control. Lower panel, the densitometric analyses of bands represented as the mean ± SD of the two different experiments. *p < 0.05 and **p < 0.01 compared with the control group by the Student’s t-test.
Flow cytometry was used to detect the distribution of cell cycle. After being cultivated with the treatment, 10^5 cells in 35 mm culture dish were harvested in 0.35% trypsin, collected and fixed with 70% cold ethanol at 4 °C for 1 h. Then, cells were centrifuged at 1500 g for 5 min and incubated in 0.5 ml PBS containing 0.1 mg/ml RNase for 30 min at 37 °C. […]

What does the source list for `O=C1Nc2ccccc2C1(F)Cc1ccc(-c2ccccc2)o1` (stereo not drawn) [Compound 8c, 3-fluoro-3-((5-phenylfuran-2-yl)methyl)indolin-2-one]?
AMPK phosphorylation (pAMPK/AMPK) [1]: notably activated AMPK; cytotoxic effect by cell counting at different times [2]: time-dependent strong cytotoxic effect; cells in subG0 phase [3]: 80%
